Results published in ChEMBL document CHEMBL1134789, “Design, synthesis, and modeling of novel cyclic thrombin receptor-derived peptide analogues of the Ser42-Phe-Leu-Leu-Arg46 motif sequence with fixed conformations of pharmacophoric groups: importance of a Phe/Arg/NH2 cluster for receptor activation and implications in the design of nonpeptide …” (2001).

Species on record: Rattus norvegicus
Test: Ratio concentration and the concentration of SFLLR-NH2 necessary for producing an equal relaxing effect on the isolated rat aortic rings
Assay type: functional, Aorta

SMILES | Relative potency
N=C(N)NCCCCCC(=O)N1CCC(C(=O)NCc2ccc(F)cc2)CC1 | 37.3
N=C(N)NCCCCCC(=O)NCCCCNC(=O)Cc1ccc(F)cc1 | 50.6
N=C(N)NCCCCCC(=O)NCCCCNC(=O)Cc1ccccc1 | 68
CC(C)C[C@H](NC(=O)[C@H](CC(C)C)NC(=O)[C@H](Cc1ccccc1)NC(=O)[C@@H](N)CO)C(=O)N[C@@H](CCCN=C(N)N)C(N)=O | 1
CC(C)C[C@@H]1NC(=O)[C@H](CC(C)C)NC(=O)[C@H](Cc2ccccc2)NC(=O)[C@@H](N)CNC(=O)[C@@H](N)CCCCNC(=O)[C@H](CCCN=C(N)N)NC1=O | 3.3
CC(C)C[C@@H]1NC(=O)[C@H](CC(C)C)NC(=O)[C@@H](Cc2ccccc2)NC(=O)[C@@H](N)CNC(=O)[C@@H](N)CCCCNC(=O)[C@H](CCCNC(=N)N)NC1=O | >500
NC(N)=NCCCCCC(=O)N1CCN(C(=O)C(N)Cc2ccccc2)CC1 (configuration not stated) | 32.8
